{"source": "paper PMC9616048", "about": "“Thermal proteome profiling reveals Haemonchus orphan protein HCO_011565 as a target of the nematocidal small molecule UMW-868” (Frontiers in Pharmacology, 2022)", "key": {"HCO_011565": {"system": "HCO_011565", "assay": "Thermal proteome profiling (TPP)", "format": "binding, Haemonchus contortus", "details": "UMW-868 at 50 μM, xL3 protein extract, 37–67°C, versus PBS control", "source_text": "(§1) TPP is an advanced, multiplexed mass-spectrometry method that allows the unbiased identification or detection of drug targets ([Savitski et al., 2014]; [Perrin et al., 2020]; [Mateus et al., 2022]); it relies on the thermostability of protein-drug interactions to identify potential target protein(s) through denaturation profiles (melting curves) upon heat treatment ([Childs et al., 2019]), and has proven capacity to specifically identify targets of anti-cancer drugs or drug candidates ([Savitski et al., 2014]; [Perrin et al., 2020]; [Mateus et al., 2022]). […] The protein concentration in the supernatant was measured using a BCA Protein Assay Kit (Thermo Fisher Scientific), adjusted to 2 mg/ml and divided into four 250 μl aliquots/replicates (each containing 500 μg protein). • (ii) Incubation with compound (UMW-868), and temperature profile: Of the four 250 µl aliquots of xL3 proteins, two (i.e., test-samples) were each incubated with an equal volume of compound (UMW-868 at 50 μM), and two (control-samples) with an equal volume of PBS (pH 7.0) for 30 min at 23°C. […]"}, "HCO_014287": {"system": "HCO_014287", "assay": "Thermal proteome profiling (TPP)", "format": "binding, Haemonchus contortus", "details": "UMW-868 at 50 μM, xL3 protein extract, 37–67°C, versus PBS control", "source_text": "as §1"}, "[1]": {"system": "H. contortus xL3 to L4 development", "assay": "High throughput screen, larval development and phenotype at 168 h", "format": "cell-based, Haemonchus contortus", "experimental": "Following the measurement of xL3 motility, plates were incubated again for 78 h (i.e., a total of 168 h) under the same conditions. Thereafter, 40 µl of 1% (v/v) iodine were added to individual wells, and worms examined using a light microscope (M80, Leica) at 60-times magnification to assess larval development, based on the presence/absence of a well-developed pharynx ([Sommerville, 1966]), and/or phenotypic alterations with respect to untreated xL3s."}}}
{"compound": "CCCc1ccc(-c2nc(-c3cccs3)no2)cc1", "note": "[UMW-868, 5-(4-propylphenyl)-3-(2-thienyl)-1,2,4-oxadiazole]", "values": [{"measurement": "thermostability of protein in presence of compound", "setting": "HCO_011565", "result": "highest, statistically significant thermostability"}, {"measurement": "thermostability of protein in presence of compound", "setting": "HCO_014287", "result": "highest, statistically significant thermostability"}, {"measurement": "Abnormal phenotype detected at 168 h", "setting": "[1]; 20 µM", "result": "Cur, Evi"}, {"measurement": "inhibition at 20 µM", "setting": "[1]; Haemonchus contortus, development to L4", "result": "80 to 99", "unit": "%"}]}
